# Patent publication US20100267561A1, “HERBICIDAL PYRIDAZINONE DERIVATIVES” (priority 2007, published 2010)
# Experiments:
# Assay type in all cases: in vivo
# [1] = test system: umbrella sedge (Cyperus difformis); assay: Test B flooded paddy test plant response
# Text: (§1) Plant species in the flooded paddy test consisted of rice (Oryza sativa), umbrella sedge (Cyperus difformis), ducksalad (Heteranthera limosa) and barnyardgrass (Echinochloa crus-galli) grown to the 2-leaf stage for testing. At time of treatment, test pots were flooded to 3 cm above the soil surface, treated by application of test compounds directly to the paddy water, and then maintained at that water depth for the duration of the test. Treated plants and controls were maintained in a greenhouse for 13 to 15 days, after which time all species were compared to controls and visually evaluated. Plant response ratings, summarized in Table B, are based on a scale of 0 to 100 where 0 is no effect and 100 is complete control. A dash (-) response means no test result.
# [2] = test system: barnyardgrass (Echinochloa crus-galli); assay: Test B flooded paddy test plant response
# Text: as §1
# [3] = test system: ducksalad (Heteranthera limosa); assay: Test B flooded paddy test plant response
# Text: as §1
# rice (Oryza sativa) = assay: Test B flooded paddy test plant response
# Text: as §1
# [4] = test system: large crabgrass (Digitaria sanguinalis); assay: Test A pre-/postemergence plant response
# Text: (§2) Seeds of species selected from barnyardgrass (Echinochloa crus-galli), large crabgrass (Digitaria sanguinalis), giant foxtail (Setaria faberi), blackgrass (Alopecurus myosuroides), canarygrass (Phalaris minor), morningglory (Ipomoea coccinea), pigweed (Amaranthus retroflexus), velvetleaf (Abutilon theophrasti), wheat (Triticum aestivum), and corn (Zea mays) were planted into a blend of loam soil and sand and treated preemergence with a directed soil spray using test chemicals formulated in a non-phytotoxic solvent mixture which included a surfactant. At the same time these species were also treated with postemergence applications of test chemicals formulated in the same manner.
# (§3) Plants ranged in height from 2 to 10 cm and were in the one- to two-leaf stage for the postemergence treatment. Treated plants and untreated controls were maintained in a greenhouse for approximately 10 days, after which time all treated plants were compared to untreated controls and visually evaluated for injury. Plant response ratings, summarized in Table A, are based on a 0 to 100 scale where 0 is no effect and 100 is complete control. A dash (-) response means no test results.
# [5] = test system: barnyardgrass (Echinochloa crus-galli); assay: Test A pre-/postemergence plant response
# Text: as §2, §3
# [6] = test system: giant foxtail (Setaria faberi); assay: Test A pre-/postemergence plant response
# Text: as §2, §3
# [7] = test system: velvetleaf (Abutilon theophrasti); assay: Test A pre-/postemergence plant response
# Text: as §2, §3
# [8] = test system: morningglory (Ipomoea coccinea); assay: Test A pre-/postemergence plant response
# Text: as §2, §3
# corn (Zea mays) = assay: Test A pre-/postemergence plant response
# Text: as §2, §3
# [9] = test system: pigweed (Amaranthus retroflexus); assay: Test A pre-/postemergence plant response
# Text: as §2, §3
# [10] = test system: wheat (Triticum aestivum); assay: Test A pre-/postemergence plant response
# Text: as §2, §3
# [11] = Flood (flooded paddy test), 62 g ai/ha, scale 0 to 100, 0 no effect, 100 complete control
# [12] = Flood (flooded paddy test), 125 g ai/ha, scale 0 to 100, 0 no effect, 100 complete control
# [13] = Flood (flooded paddy test), 250 g ai/ha, scale 0 to 100, 0 no effect, 100 complete control
# [14] = Flood, 31 g ai/ha, scale 0 to 100
# [15] = Postemergence, 125 g ai/ha, 0 to 100 scale, 0 no effect, 100 complete control
# [16] = Postemergence, 500 g ai/ha, 0 to 100 scale, 0 no effect, 100 complete control
# [17] = Preemergence, 125 g ai/ha, 0 to 100 scale (0 no effect, 100 complete control)
# [18] = Preemergence, 500 g ai/ha, 0 to 100 scale (0 no effect, 100 complete control)
# [19] = Postemergence, 62 g ai/ha, 0 to 100 scale, 0 no effect, 100 complete control
# [20] = Postemergence, 250 g ai/ha, 0 to 100 scale, 0 no effect, 100 complete control
# [21] = Preemergence, 62 g ai/ha, 0 to 100 scale, 0 no effect, 100 complete control
# [22] = Preemergence, 250 g ai/ha, 0 to 100 scale (0 no effect, 100 complete control)
# [23] = Postemergence, 31 g ai/ha, 0 to 100 scale (0 no effect, 100 complete control)
# [24] = Preemergence, 31 g ai/ha, 0 to 100 scale, 0 is no effect, 100 is complete control
smiles,measurement,setting,value
Cc1cc(-c2ccc(OC(F)(F)F)cc2)nn1-c1c(OC(=O)OC(C)C)cnn(C)c1=O [Compound 13],"Plant response rating, Sedge, Umbrella",[1]; [11],0
same,"Plant response rating, Sedge, Umbrella",[1]; [12],0
same,"Plant response rating, Sedge, Umbrella",[1]; [13],0
same,"Plant response rating, Sedge, Umbrella",[1]; [14],0
same,"Plant response rating, Barnyardgrass",[2]; [11],0
same,"Plant response rating, Barnyardgrass",[2]; [12],0
same,"Plant response rating, Barnyardgrass",[2]; [13],0
same,"Plant response rating, Barnyardgrass",[2]; [14],0
same,"Plant response rating, Ducksalad",[3]; [11],0
same,"Plant response rating, Ducksalad",[3]; [12],0
same,"Plant response rating, Ducksalad",[3]; [13],0
same,"Plant response rating, Ducksalad",[3]; [14],0
same,"Plant response rating, Rice",rice (Oryza sativa); [11],0
same,"Plant response rating, Rice",rice (Oryza sativa); [12],0
same,"Plant response rating, Rice",rice (Oryza sativa); [13],0
same,"Plant response rating, Rice",rice (Oryza sativa); [14],0
same,"Plant response rating, Crabgrass, Large",[4]; [15],20
same,"Plant response rating, Crabgrass, Large",[4]; [16],80
same,"Plant response rating, Crabgrass, Large",[4]; [17],60
same,"Plant response rating, Crabgrass, Large",[4]; [18],90
same,"Plant response rating, Barnyardgrass",[5]; [15],50
same,"Plant response rating, Barnyardgrass",[5]; [16],90
same,"Plant response rating, Barnyardgrass",[5]; [17],60
same,"Plant response rating, Barnyardgrass",[5]; [18],100
same,"Plant response rating, Foxtail, Giant",[6]; [15],70
same,"Plant response rating, Foxtail, Giant",[6]; [16],80
same,"Plant response rating, Foxtail, Giant",[6]; [17],70
same,"Plant response rating, Foxtail, Giant",[6]; [18],100
same,"Plant response rating, Velvetleaf",[7]; [15],0
same,"Plant response rating, Velvetleaf",[7]; [16],0
same,"Plant response rating, Velvetleaf",[7]; [17],0
same,"Plant response rating, Velvetleaf",[7]; [18],20
same,"Plant response rating, Morningglory",[8]; [15],0
same,"Plant response rating, Morningglory",[8]; [16],0
same,"Plant response rating, Morningglory",[8]; [17],0
same,"Plant response rating, Morningglory",[8]; [18],0
same,"Plant response rating, Corn",corn (Zea mays); [15],30
same,"Plant response rating, Corn",corn (Zea mays); [16],60
same,"Plant response rating, Corn",corn (Zea mays); [17],20
same,"Plant response rating, Corn",corn (Zea mays); [18],70
same,"Plant response rating, Pigweed",[9]; [15],0
same,"Plant response rating, Pigweed",[9]; [16],0
same,"Plant response rating, Pigweed",[9]; [17],0
same,"Plant response rating, Pigweed",[9]; [18],0
same,"Plant response rating, Wheat",[10]; [15],50
same,"Plant response rating, Wheat",[10]; [16],60
same,"Plant response rating, Wheat",[10]; [17],20
same,"Plant response rating, Wheat",[10]; [18],70
CCc1cc(-c2ccc(C(F)(F)F)cc2)nn1-c1c(OC(=O)C(C)(C)C)cnn(C)c1=O [Compound 18],"Plant response rating, Crabgrass, Large",[4]; [19],80
same,"Plant response rating, Crabgrass, Large",[4]; [20],100
same,"Plant response rating, Crabgrass, Large",[4]; [21],100
same,"Plant response rating, Crabgrass, Large",[4]; [22],100
same,"Plant response rating, Barnyardgrass",[5]; [19],90
same,"Plant response rating, Barnyardgrass",[5]; [20],100
same,"Plant response rating, Barnyardgrass",[5]; [21],100
same,"Plant response rating, Barnyardgrass",[5]; [22],100
same,"Plant response rating, Foxtail, Giant",[6]; [19],90
same,"Plant response rating, Foxtail, Giant",[6]; [20],100
same,"Plant response rating, Foxtail, Giant",[6]; [21],100
same,"Plant response rating, Foxtail, Giant",[6]; [22],100
same,"Plant response rating, Velvetleaf",[7]; [19],0
same,"Plant response rating, Velvetleaf",[7]; [20],0
same,"Plant response rating, Velvetleaf",[7]; [21],0
same,"Plant response rating, Velvetleaf",[7]; [22],0
same,"Plant response rating, Morningglory",[8]; [19],0
same,"Plant response rating, Morningglory",[8]; [20],0
same,"Plant response rating, Morningglory",[8]; [21],0
same,"Plant response rating, Morningglory",[8]; [22],0
same,"Plant response rating, Corn",corn (Zea mays); [19],80
same,"Plant response rating, Corn",corn (Zea mays); [20],90
same,"Plant response rating, Corn",corn (Zea mays); [21],90
same,"Plant response rating, Corn",corn (Zea mays); [22],90
same,"Plant response rating, Pigweed",[9]; [19],0
same,"Plant response rating, Pigweed",[9]; [20],0
same,"Plant response rating, Pigweed",[9]; [21],0
same,"Plant response rating, Pigweed",[9]; [22],0
same,"Plant response rating, Wheat",[10]; [19],70
same,"Plant response rating, Wheat",[10]; [20],80
same,"Plant response rating, Wheat",[10]; [21],90
same,"Plant response rating, Wheat",[10]; [22],100
Cc1nc(-c2ccc(C(F)(F)F)cc2)sc1-c1c(O)cnn(C)c1=O [Compound 24],"Plant response rating, Crabgrass, Large",[4]; [15],0
same,"Plant response rating, Crabgrass, Large",[4]; [16],10
same,"Plant response rating, Crabgrass, Large",[4]; [17],0
same,"Plant response rating, Crabgrass, Large",[4]; [18],60
same,"Plant response rating, Barnyardgrass",[5]; [15],0
same,"Plant response rating, Barnyardgrass",[5]; [16],10
same,"Plant response rating, Barnyardgrass",[5]; [17],0
same,"Plant response rating, Barnyardgrass",[5]; [18],30
same,"Plant response rating, Foxtail, Giant",[6]; [15],0
same,"Plant response rating, Foxtail, Giant",[6]; [16],40
same,"Plant response rating, Foxtail, Giant",[6]; [17],0
same,"Plant response rating, Foxtail, Giant",[6]; [18],80
same,"Plant response rating, Velvetleaf",[7]; [15],0
same,"Plant response rating, Velvetleaf",[7]; [16],0
same,"Plant response rating, Velvetleaf",[7]; [17],0
same,"Plant response rating, Velvetleaf",[7]; [18],0
same,"Plant response rating, Morningglory",[8]; [15],0
same,"Plant response rating, Morningglory",[8]; [16],0
same,"Plant response rating, Morningglory",[8]; [17],0
same,"Plant response rating, Morningglory",[8]; [18],0
same,"Plant response rating, Corn",corn (Zea mays); [15],0
same,"Plant response rating, Corn",corn (Zea mays); [16],20
same,"Plant response rating, Corn",corn (Zea mays); [17],0
same,"Plant response rating, Corn",corn (Zea mays); [18],0
same,"Plant response rating, Pigweed",[9]; [15],0
same,"Plant response rating, Pigweed",[9]; [16],0
same,"Plant response rating, Pigweed",[9]; [17],0
same,"Plant response rating, Pigweed",[9]; [18],0
same,"Plant response rating, Wheat",[10]; [15],0
same,"Plant response rating, Wheat",[10]; [16],20
same,"Plant response rating, Wheat",[10]; [17],0
same,"Plant response rating, Wheat",[10]; [18],0
Cn1ncc(O)c(-c2nn(-c3ccc(C(F)(F)F)cn3)cc2Br)c1=O [Compound 71],"Plant response rating, Crabgrass, Large",[4]; [23],20
same,"Plant response rating, Crabgrass, Large",[4]; [15],80
same,"Plant response rating, Crabgrass, Large",[4]; [24],10
same,"Plant response rating, Crabgrass, Large",[4]; [17],60
same,"Plant response rating, Barnyardgrass",[5]; [23],10
same,"Plant response rating, Barnyardgrass",[5]; [15],90
same,"Plant response rating, Barnyardgrass",[5]; [24],0
same,"Plant response rating, Barnyardgrass",[5]; [17],40
same,"Plant response rating, Foxtail, Giant",[6]; [23],30
same,"Plant response rating, Foxtail, Giant",[6]; [15],90
same,"Plant response rating, Foxtail, Giant",[6]; [24],0
same,"Plant response rating, Foxtail, Giant",[6]; [17],100
same,"Plant response rating, Velvetleaf",[7]; [23],0
same,"Plant response rating, Velvetleaf",[7]; [15],0
same,"Plant response rating, Velvetleaf",[7]; [24],0
same,"Plant response rating, Velvetleaf",[7]; [17],0
same,"Plant response rating, Morningglory",[8]; [23],0
same,"Plant response rating, Morningglory",[8]; [15],0
same,"Plant response rating, Morningglory",[8]; [24],0
same,"Plant response rating, Morningglory",[8]; [17],0
same,"Plant response rating, Corn",corn (Zea mays); [23],0
same,"Plant response rating, Corn",corn (Zea mays); [15],40
same,"Plant response rating, Corn",corn (Zea mays); [24],0
same,"Plant response rating, Corn",corn (Zea mays); [17],20
same,"Plant response rating, Pigweed",[9]; [23],0
same,"Plant response rating, Pigweed",[9]; [15],0
same,"Plant response rating, Pigweed",[9]; [24],0
same,"Plant response rating, Pigweed",[9]; [17],0
same,"Plant response rating, Wheat",[10]; [23],0
same,"Plant response rating, Wheat",[10]; [15],80
same,"Plant response rating, Wheat",[10]; [24],0
same,"Plant response rating, Wheat",[10]; [17],50
